# From ChEMBL document CHEMBL4765244, “Synthesis, bioconversion, pharmacokinetic and pharmacodynamic evaluation of N-isopropyl-oxy-carbonyloxymethyl prodrugs of CZh-226, a potent and selective PAK4 inhibitor” (Eur J Med Chem, 2020)
# Experiments:
# [1] = Chemical stability of the compound in pH 6.8 simulated intestinal fluid assessed as compound remaining measured after 2 hrs by HPLC analysis; type: physicochemical
# [2] = Stability of the compound in human plasma assessed as compound remaining measured within 120 mins at 37 degC by HPLC analysis; type: ADME, cell-free; conditions: read-out: Stabilty
# [3] = Chemical stability of the compound in pH 1.2 simulated gastric fluid buffer assessed as compound remaining measured after 2 hrs by HPLC analysis; type: physicochemical
# [4] = Stability of the compound in rat liver S9 fraction assessed as compound remaining measured after 60 mins at 37 degC by LC-MS/MS analysis; type: ADME, subcellular; conditions: read-out: Stabilty
# [5] = Prodrug conversion in human plasma assessed as release of active metabolite (R)-(6-chloro-4-(5-cyclopropyl-1H-pyrazol-3-ylamino)quinazolin-2-yl)(3-methylpiperazin-1-yl)methanone hydrochloride measured within 120 mins at 37 degC by HPLC analysis; type: ADME, cell-free; conditions: 2 h
# [6] = Chemical stability of the compound in pH 7.4 PBS buffer assessed as compound remaining measured after 2 hrs by HPLC analysis; type: physicochemical; conditions: read-out: Stabilty
# [7] = Cmax in Wistar rat assessed as (R)-(6-chloro-4-(5-cyclopropyl-1H-pyrazol-3-ylamino)quinazolin-2-yl)(3-methylpiperazin-1-yl)methanone hydrochloride at 13.84 mg/kg, po measured upto 24 hrs by LC/MS/MS analysis; type: ADME, organism-based; design: route oral, dose 13.84 mg/kg, time <=24; conditions: in vivo
# [8] = Tmax in Wistar rat assessed as (R)-(6-chloro-4-(5-cyclopropyl-1H-pyrazol-3-ylamino)quinazolin-2-yl)(3-methylpiperazin-1-yl)methanone hydrochloride at 13.84 mg/kg, po measured upto 24 hrs by LC/MS/MS analysis; type: ADME, organism-based; conditions: in vivo
# [9] = Half life in Wistar rat assessed as (R)-(6-chloro-4-(5-cyclopropyl-1H-pyrazol-3-ylamino)quinazolin-2-yl)(3-methylpiperazin-1-yl)methanone hydrochloride at 13.84 mg/kg, po measured upto 24 hrs by LC/MS/MS analysis; type: ADME, organism-based; conditions: in vivo
# [10] = AUC (0 to infinity) in Wistar rat assessed as (R)-(6-chloro-4-(5-cyclopropyl-1H-pyrazol-3-ylamino)quinazolin-2-yl)(3-methylpiperazin-1-yl)methanone hydrochloride at 13.84 mg/kg, po measured upto 24 hrs by LC/MS/MS analysis; type: ADME, organism-based; design: route oral, dose 13.84 mg/kg, time <=24; conditions: in vivo
# [11] = AUC in Wistar rat assessed as (R)-(6-chloro-4-(5-cyclopropyl-1H-pyrazol-3-ylamino)quinazolin-2-yl)(3-methylpiperazin-1-yl)methanone hydrochloride at 13.84 mg/kg, po measured upto 24 hrs by LC/MS/MS analysis; type: ADME, organism-based; design: route oral, dose 13.84 mg/kg, time <=24; conditions: in vivo
remaining at 2 h [2] [%],remaining at 1 h [4] [%],Drug metabolism [5] [%],remaining at 2 h [6] [%],Cmax [7] [ng/mL],Tmax [8] [min],t1/2 [9] [h],AUC [10] [ng·h/mL],AUC [11] [ng·h/mL],SMILES,Stability [1] [%],Stability [3] [%]
86.2,45.6,13.5,97.7,–,–,–,–,–,C[C@@H]1CN(C(=O)c2nc(Nc3cc(C4CC4)[nH]n3)c3cc(Cl)ccc3n2)CCN1C(=O)OCc1ccccc1,93.6,84.7
85.3,48.5,14.8,97.7,–,–,–,–,–,CCOC(=O)N1CCN(C(=O)c2nc(Nc3cc(C4CC4)[nH]n3)c3cc(Cl)ccc3n2)C[C@H]1C,92.9,89.5
74.4,63.9,21.4,99.8,–,–,–,–,–,CCCCCOC(=O)N1CCN(C(=O)c2nc(Nc3cc(C4CC4)[nH]n3)c3cc(Cl)ccc3n2)C[C@H]1C,90.7,88.4
0,47,94,97.7,2.8,4.98,30.204,67.6,28.8,C[C@@H]1CN(C(=O)c2nc(Nc3cc(C4CC4)[nH]n3)c3cc(Cl)ccc3n2)CCN1C(=O)OCOC(=O)C(C)(C)C,93,83.9
79,78.9,16.3,98.7,–,–,–,–,–,C[C@@H]1CN(C(=O)c2nc(Nc3cc(C4CC4)[nH]n3)c3cc(Cl)ccc3n2)CCN1C(=O)OCC(Cl)(Cl)Cl,88.2,88.5
78.5,78.6,18.7,99,–,–,–,–,–,CC(C)OC(=O)N1CCN(C(=O)c2nc(Nc3cc(C4CC4)[nH]n3)c3cc(Cl)ccc3n2)C[C@H]1C,94.4,70.2
73.7,71.3,20.7,99.1,–,–,–,–,–,C[C@@H]1CN(C(=O)c2nc(Nc3cc(C4CC4)[nH]n3)c3cc(Cl)ccc3n2)CCN1C(=O)OC(C)(C)C,90.2,37.1
17.4,11,78.8,96.6,28.3,4.98,10.35,59.6,50,CC(OC(=O)C(C)C)OC(=O)N1CCN(C(=O)c2nc(Nc3cc(C4CC4)[nH]n3)c3cc(Cl)ccc3n2)C[C@H]1C (some centres undefined),88.6,62.5
84.6,34.2,13.4,100,–,–,–,–,–,COC(=O)N1CCN(C(=O)c2nc(Nc3cc(C4CC4)[nH]n3)c3cc(Cl)ccc3n2)C[C@H]1C,91.5,95.2
